Experimental data as given in EP0887077A1, “Use of azulene derivatives as metalloprotease inhibitors” (BOEHRINGER MANNHEIM GMBH, priority 1997, dated 1998).

Test system: TNF-α
Experiment: Inhibition of LPS-induced TNFα release from peripheral human leukocytes, TNFα-specific enzyme immunoassay of culture supernatant
Assay type: cell-based
Conditions: Leukocyte, Periphere humane Leukozyten, LPS über 22 Std., TNFα im Kulturüberstand
Description: Periphere humane Leukozyten werden mit LPS über 22 Std. inkubiert. Der Kultutüberstand wird mit einem TNFα spezifischen Enzym-Immuno-Assay untersucht. Durch Vergleich der für die Messproben erhaltenen TNFα-Konzentrationen mit den ungehemmten Proben wird die prozentuale Hemmung für die einzelne Probe berechnet. Aus der Konzentrationsabhängigkeit der Hemmwerte werden rechnerisch die IC50-Werte bestimmt. […]
Die IC50-Werte der oben genannten Substanzen, die Gegenstand dieses Patentes sind, gegen TNF-α finden sich in der folgenden Tabelle;

Row | SMILES | IC50 [µM]
1 | CCOC(=O)c1c2ccc(C(C(=O)OCC)C(=O)OCC)ccc-2c(C(=O)OCC)c1N(C(C)=O)C(C)=O [Verbindung 3, 6-(Bis-ethoxycarbonylmethyl)-2-diacetylamino-azulen-1,3-dicarbonsäurediethylester] | 0.18
2 | CCOC(=O)Cc1ccc2c(C(=O)OCC)c(N(C(C)=O)C(C)=O)c(C(=O)OCC)c-2cc1 [Verbindung 2, 2-Diacetylamino-6-ethoxycarbonylmethyl-azulen-1,3-dicarbonsäurediethylester] | 0.05
3 | CCOC(=O)c1c2ccc(S)ccc-2c(C(=O)OCC)c1N [Verbindung 8, 2-Amino-6-mercapto-azulen-1,3-dicarbonsäurediethylester] | 26
4 | CCOC(=O)c1c2ccc(Br)ccc-2c(C(=O)OCC)c1N(C(C)=O)C(C)=O [Verbindung 4, 6-Bromo-2-diacetylamino-azulen-1,3-dicarbonsäurediethylester] | 1.3
5 | Cc1cc(C=CC=O)c2c(C)ccc(C(C)C)cc1-2 [Verbindung 10, 3-(5-isopropyl-3,8-dimethyl-azulen-1-yl)-propenal] | 10.7
6 | CCOC(=O)c1c2ccc(Br)ccc-2c(C(=O)OCC)c1NC(C)=O [Verbindung 5, 2-Acetylamino-6-bromo-azulen-1,3-dicarbonsäurediethylester] | 1.1
7 | CCOC(=O)Cc1ccc2c(C(=O)OCC)c(OCC)c(C(=O)OCC)c-2cc1 [Verbindung 6, 2-Ethoxy-6-ethoxycarbonylmethyl-azulen-1,3-dicarbonsäurediethylester] | 11.9
8 | CCOC(=O)Cc1ccc2c(C(=O)OCC)c(N)c(C(=O)OCC)c-2cc1 [Verbindung 1, 2-Amino-6-ethoxycarbonylmethyl-azulen-1,3-dicarbonsäurediethylester] | 0.2
9 | CCOC(=O)C(Cc1ccc2c(C(=O)OCC)c(Cl)c(C(=O)OCC)c-2cc1)=NO [Verbindung 9, 2-Chloro-6-(2-ethoxycarbonyl-2-hydroxyimino-ethyl)-azulen-1,3-dicarbonsäurediethylester] | 2.7
10 | CCOC(=O)c1c2cccccc-2c(C(=O)OCC)c1N [Verbindung 7, 2-Amino-azulen-1,3-dicarbonsäurediethylester] | 25.4
